Read-outs that look alike come from different tables or passages of the source.
What was measured:
Assay type in all cases: biochemical
CDK1:Cyclin-B = biological target: T1, CDK1:Cyclin-B (Homo sapiens, UniProt P06493); experiment: CDK1 Screening Assay; settings: read-out: Kinase Assay (IC50 uM) CDK1
T1 construct: purchased New England Biolabs, Beverly, MA 6020; host or cells: insect cells
Description: (§1) 70 µL of the kinase reaction mixture was dispensed into the well of a streptavidin coated FlashPlate™ (Cat. # SMP103, NEN, Boston, MA). Then 1 µL of test compound stock in 100% DMSO was added to the wells resulting in a final concentration of 1% DMSO in the reaction with a 100 µl final reaction volume. Next, CDK1:Cyclin-B protein was diluted in 50 mM Tris-HCl pH=8.0, 0.1% BSA at a concentration of 1 ng per µL and 30 µl (30ng enzyme per test well) was added to each well to initiate the reaction. The reaction was incubated for one hour at 30°C. At the end of the 1-hour incubation, the reaction was terminated by aspirating the reaction mixture from the plate and washing the wells twice with PBS containing 100 mM EDTA. The histone-H1 biotinylated peptide substrate became immobilized on the Flashplate™ and the incorporation of ^33P-γ-ATP was measured by reading the plate on a scintillation counter. Inhibition of the enzymatic activity of CDK1 was measured by observing a reduced amount of ^33P-γ-ATP incorporated into the immobilized peptide. […]

[1] = biological target: T2, VEGF-R (vascular endothelial growth factor receptor-2) (Rattus norvegicus, UniProt O08775); experiment: VEGF-R Screening Assay; settings: read-out: Kinase Assay (IC50 uM) VEGF-R
T2 construct: 6xHis (polyhistidine) (N)
Description: as §1, with “a 100 µL final reaction” for “a 100 µl final reaction”, “volume. Next, soluble rat tyrosine kinase containing an N-terminal 6XHIS tag was diluted” for “volume. Next, CDK1:Cyclin-B protein was diluted”, “concentration of 5 ng per” for “concentration of 1 ng per”, “and 30 µL (150 ng enzyme per” for “and 30 µl (30ng enzyme per”, “EDTA. The PLC1 biotinylated peptide” for “EDTA. The histone-H1 biotinylated peptide”, “activity of the VEGF-R was measured” for “activity of CDK1 was measured”

[2] = biological target: T3, HER2 (human epidermal growth factor receptor-2) (Homo sapiens, UniProt P04626); experiment: Kinase Selectivity Assay HER2
T3 construct: begins at amino acid 676 followed by the remainder of the HER2 cytoplasmic domain; polyhistidine (N)

[3] = biological target: T4, EGFR (epidermal growth factor receptor) (Homo sapiens, UniProt P00533); experiment: Kinase Selectivity Assay EGF-R; settings: read-out: Kinase Assay (IC50 uM) EGF-R
T4 construct: is purified from human A431 cell membranes (Sigma, St. Louis, MO, Cat.# E3641); purchased Sigma, St. Louis, MO E3641; host or cells: human A431 cell membranes (endogenous protein)

[4] = read-out: Kinase Assay (IC50 uM) HER2 Kinase

T4 sequence (P00533 25-1210): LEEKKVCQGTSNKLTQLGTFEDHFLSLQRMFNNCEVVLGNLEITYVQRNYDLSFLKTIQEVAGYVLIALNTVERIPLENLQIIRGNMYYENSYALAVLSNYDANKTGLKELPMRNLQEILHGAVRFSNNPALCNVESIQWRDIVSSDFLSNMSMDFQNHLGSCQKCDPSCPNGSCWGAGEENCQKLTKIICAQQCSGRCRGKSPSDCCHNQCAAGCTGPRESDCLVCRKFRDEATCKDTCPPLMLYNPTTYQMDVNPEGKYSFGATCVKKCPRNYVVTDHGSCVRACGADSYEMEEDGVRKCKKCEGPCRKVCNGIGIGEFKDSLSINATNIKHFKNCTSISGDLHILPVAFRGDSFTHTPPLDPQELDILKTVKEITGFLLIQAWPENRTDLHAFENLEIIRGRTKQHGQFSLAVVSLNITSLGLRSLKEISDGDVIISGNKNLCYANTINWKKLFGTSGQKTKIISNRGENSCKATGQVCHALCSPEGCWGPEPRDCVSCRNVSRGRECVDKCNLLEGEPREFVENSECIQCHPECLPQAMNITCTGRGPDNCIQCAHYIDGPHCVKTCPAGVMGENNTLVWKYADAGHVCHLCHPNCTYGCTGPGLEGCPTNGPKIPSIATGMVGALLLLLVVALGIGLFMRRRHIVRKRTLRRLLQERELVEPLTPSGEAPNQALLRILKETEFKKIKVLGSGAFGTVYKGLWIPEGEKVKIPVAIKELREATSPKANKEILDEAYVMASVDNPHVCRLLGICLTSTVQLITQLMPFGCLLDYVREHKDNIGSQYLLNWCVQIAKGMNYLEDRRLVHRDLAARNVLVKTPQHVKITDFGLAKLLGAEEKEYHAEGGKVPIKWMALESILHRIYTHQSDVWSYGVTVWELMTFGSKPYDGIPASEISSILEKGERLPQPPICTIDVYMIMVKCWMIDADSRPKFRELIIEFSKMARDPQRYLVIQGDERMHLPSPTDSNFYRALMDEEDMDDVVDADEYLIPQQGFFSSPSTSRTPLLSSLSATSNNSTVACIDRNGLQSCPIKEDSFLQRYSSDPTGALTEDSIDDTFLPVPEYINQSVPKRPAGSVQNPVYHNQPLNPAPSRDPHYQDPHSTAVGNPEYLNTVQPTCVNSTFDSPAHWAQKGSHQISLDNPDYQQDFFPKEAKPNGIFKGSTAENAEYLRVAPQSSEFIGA
T2 sequence (O08775 786-1343): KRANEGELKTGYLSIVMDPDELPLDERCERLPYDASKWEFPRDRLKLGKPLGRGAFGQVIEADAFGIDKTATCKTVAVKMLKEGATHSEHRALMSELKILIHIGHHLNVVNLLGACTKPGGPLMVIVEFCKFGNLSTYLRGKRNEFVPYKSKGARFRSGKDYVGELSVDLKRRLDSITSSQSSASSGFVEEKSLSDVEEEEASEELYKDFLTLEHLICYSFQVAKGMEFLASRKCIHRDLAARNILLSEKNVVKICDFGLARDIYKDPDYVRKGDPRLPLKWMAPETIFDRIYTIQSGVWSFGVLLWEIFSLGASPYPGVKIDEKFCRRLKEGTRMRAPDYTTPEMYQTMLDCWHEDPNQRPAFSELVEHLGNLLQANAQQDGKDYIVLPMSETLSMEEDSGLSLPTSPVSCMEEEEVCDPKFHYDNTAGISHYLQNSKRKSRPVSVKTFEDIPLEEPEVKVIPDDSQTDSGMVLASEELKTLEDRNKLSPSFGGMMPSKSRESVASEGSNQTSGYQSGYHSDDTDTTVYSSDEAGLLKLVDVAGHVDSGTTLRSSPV
T3 sequence (P04626 676-1255 limits assumed): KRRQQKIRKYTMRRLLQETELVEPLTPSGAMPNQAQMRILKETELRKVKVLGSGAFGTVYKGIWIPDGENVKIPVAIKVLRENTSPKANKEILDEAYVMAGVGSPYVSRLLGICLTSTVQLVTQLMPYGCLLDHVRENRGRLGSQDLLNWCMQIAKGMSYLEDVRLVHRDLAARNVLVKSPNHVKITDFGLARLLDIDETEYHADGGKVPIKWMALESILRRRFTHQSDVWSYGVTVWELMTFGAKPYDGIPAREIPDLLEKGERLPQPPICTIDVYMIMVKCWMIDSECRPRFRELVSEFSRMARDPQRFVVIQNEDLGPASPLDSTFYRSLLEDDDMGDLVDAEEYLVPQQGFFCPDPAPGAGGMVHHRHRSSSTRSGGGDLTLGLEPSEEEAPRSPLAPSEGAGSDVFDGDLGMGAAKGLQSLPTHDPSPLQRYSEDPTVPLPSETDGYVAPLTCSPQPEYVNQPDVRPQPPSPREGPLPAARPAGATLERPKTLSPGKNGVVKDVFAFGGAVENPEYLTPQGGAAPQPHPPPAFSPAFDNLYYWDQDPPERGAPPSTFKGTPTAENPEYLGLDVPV
T1 sequence (P06493 whole entry): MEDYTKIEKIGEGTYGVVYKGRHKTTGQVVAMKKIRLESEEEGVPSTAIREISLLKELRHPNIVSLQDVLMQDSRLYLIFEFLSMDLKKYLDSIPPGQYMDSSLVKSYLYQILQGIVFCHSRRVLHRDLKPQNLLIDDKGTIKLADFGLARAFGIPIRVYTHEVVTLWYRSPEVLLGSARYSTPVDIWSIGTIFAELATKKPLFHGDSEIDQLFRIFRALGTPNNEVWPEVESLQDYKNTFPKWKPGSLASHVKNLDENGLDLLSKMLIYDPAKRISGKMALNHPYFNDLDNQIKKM
T1 sequence (P14635 whole entry partner): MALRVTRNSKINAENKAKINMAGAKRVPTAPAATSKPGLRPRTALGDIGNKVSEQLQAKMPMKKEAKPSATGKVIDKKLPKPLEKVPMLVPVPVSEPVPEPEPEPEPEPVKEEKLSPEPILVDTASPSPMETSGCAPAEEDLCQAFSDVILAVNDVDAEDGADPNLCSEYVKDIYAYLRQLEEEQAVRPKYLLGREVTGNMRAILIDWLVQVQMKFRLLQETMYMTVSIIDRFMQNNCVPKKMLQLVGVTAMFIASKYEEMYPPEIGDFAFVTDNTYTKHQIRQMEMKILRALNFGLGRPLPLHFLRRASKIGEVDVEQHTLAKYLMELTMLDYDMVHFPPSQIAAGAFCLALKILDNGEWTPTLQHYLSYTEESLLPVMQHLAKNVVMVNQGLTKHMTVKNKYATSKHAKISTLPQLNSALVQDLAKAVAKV

SMILES | IC50 (CDK1:Cyclin-B) [µM] | IC50 [1] [µM] | IC50 [2, 4] [µM] | IC50 [3] [µM] | IC50 ([2]; Table 1, read-out: HER2 IC50) [µM]
Cc1ccsc1C(=O)n1nc(Nc2ccc(NS(C)(=O)=O)cc2)nc1N [Cpd 109, N-[4-[[5-amino-1-[(3-methyl-2-thienyl)carbonyl]-1H-1,2,4-triazol-3-yl]amino]phenyl]-methanesulfonamide] | 0.147 | 0.025 | 0.17 | > 100 | 
Cc1ccc(F)c(C(=O)n2nc(Nc3ccc(S(=O)(=O)NCCN(C)C)cc3)nc2N)c1F [Cpd 105, 4-[[5-amino-1-(2,6-difluoro-3-methylbenzoyl)-1H-1,2,4-triazol-3-yl]amino]-N-[2-(dimethylamino)ethyl]-benzenesulfonamide] | 0.046 | 0.276 | 0.845 | 9.6 | 
Cc1nc(C)c(C(=O)n2nc(Nc3ccc(S(N)(=O)=O)cc3)nc2N)s1 [Cpd 34, 4-[[5-amino-1-[(2,4-dimethyl-5-thiazolyl)carbonyl]-1H-1,2,4-triazol-3-yl]amino]-benzenesulfonamide] |  | 0.068 |  | > 100 | 
Nc1ccc(F)c(C(=O)n2nc(Nc3ccc(S(N)(=O)=O)cc3)nc2N)c1F [Cpd 55, 4-[[5-amino-1-(3-amino-2,6-difluorobenzoyl)-1H-1,2,4-triazol-3-yl]amino]-benzenesulfonamide] |  | 0.577 |  | 16.1 | 
Cc1ccc(F)c(C(=O)n2nc(Nc3ccc(N4CCNC4=O)cc3)nc2N)c1F [Cpd 114, 1-[4-[[5-amino-1-(2,6-difluoro-3-methylbenzoyl)-1H 1,2,4-triazol-3-yl]amino]phenyl]-2-imidazolidinone] | 0.228 | 0.313 | 1.39 | > 100 | 
Cc1cc(C)c(C(=O)n2nc(Nc3ccc(S(=O)(=O)Nc4ccccn4)cc3)nc2N)s1 [Cpd 120, 4-[[5-amino-1-[(3,5-dimethyl-2-thienyl)carbonyl]-1H-1,2,4-triazol-3-yl]amino]-N-(2-pyridinyl)-benzenesulfonamide] |  |  | 1 | > 10 | 1
Cc1cc(C)c(C(=O)n2nc(Nc3ccc(S(=O)(=O)NCCN(C)C)cc3)nc2N)s1 [Cpd 107, 4-[[5-amino-1-[(3,5-dimethyl-2-thienyl)carbonyl]-1H-1,2,4-triazol-3-yl]amino]-N-[2-(dimethylamino)ethyl]-benzenesulfonamide] | 0.014 | 0.032 | 0.03 | 0.936 | 
Nc1nc(Nc2ccc(N3CCCS3(=O)=O)cc2)nn1C(=O)c1c(F)cccc1F [Cpd 117, 1-(2,6-difluorobenzoyl)-N^3-[4-(1,1-dioxido-2-isothiazolidinyl)phenyl]-1H-1,2,4-triazole-3,5-diamine] | 0.035 |  | 5.44 | > 100 | 
Cc1ccccc1C(=O)n1nc(Nc2ccc(S(N)(=O)=O)cc2)nc1N [Cpd 57, 4-[[5-amino-1-(2-methylbenzoyl)-1H-1,2,4-triazol-3-yl]amino]-benzenesulfonamide] |  | 0.191 |  | > 100 | 
CCc1ccc(C(=O)n2nc(Nc3ccc(NS(C)(=O)=O)cc3)nc2N)s1 [Cpd 110, N-[4-[[5-amino-1-[(5-ethyl-2-thienyl)carbonyl]-1H-1,2,4-triazol-3-yl]amino]phenyl]-methanesulfonamide] | 0.022 | 0.014 |  | > 10 | 
Cc1ccc(F)c(C(=O)n2nc(N)nc2Nc2ccc(S(N)(=O)=O)cc2)c1F [Cpd 123, 4-[[3-amino-1-(2,6-difluoro-3-methylbenzoyl)-1H-1,2,4-triazol-5-yl]amino]-benzenesulfonamide] |  | 5.52 |  | > 100 | 
CNS(=O)(=O)c1ccc(Nc2nc(N)n(C(=O)c3sc(C)cc3C)n2)cc1 [Cpd 83, 4-[[5-amino-1-[(3,5-dimethyl-2-thienyl)carbonyl]-1H-1,2,4-triazol-3-yl]amino]-N-methyl-benzenesulfonamide] | 0.008 | 0.04 |  | > 100 | 
Nc1nc(Nc2ccc(S(N)(=O)=O)cc2)nn1C(=O)c1c(F)cccc1Cl [Cpd 70, 4-[[5-amino-1-(2-chloro-6-fluorobenzoyl)-1H-1,2,4-triazol-3-yl]amino]-benzenesulfonamide] |  | 0.911 |  | > 100 | 
Cc1ccsc1C(=O)n1nc(Nc2ccc(S(=O)(=O)Nc3ccccn3)cc2)nc1N [Cpd 121, 4-[[5-amino-1-[(3-methyl-2-thienyl)carbonyl]-1H-1,2,4-triazol-3-yl]amino]-N-(2-pyridinyl)-benzenesulfonamide] | 0.099 | 0.027 | 0.717 | > 10 | 
Nc1nc(Nc2ccc(S(N)(=O)=O)cc2)nn1C(=O)C1CCCC1 [Cpd 38, 4-[[5-amino-1-(cyclopentylcarbonyl)-1H-1,2,4-triazol-3-yl]amino]-benzenesulfonamide] | 0.029 | 0.88 |  | > 100 | 
Cc1ccsc1C(=O)n1nc(Nc2ccc(S(=O)(=O)NCCN(C)C)cc2)nc1N [Cpd 104, 4-[[5-amino-1-[(3-methyl-2-thienyl)carbonyl]-1H-1,2,4-triazol-3-yl]amino]-N-[2-(dimethylamino)ethyl]-benzenesulfonamide] |  | 0.016 | 0.202 | > 10 | 
CNS(=O)(=O)c1ccc(Nc2nc(N)n(C(=O)c3c(F)ccc(C)c3F)n2)cc1 [Cpd 81, 4-[[5-amino-1-(2,6-difluoro-3-methylbenzoyl)-1H-1,2,4-triazol-3-yl]amino]-N-methyl-benzenesulfonamide] | 0.018 | 0.482 | 1.7 | > 100 | 
CNS(=O)(=O)c1ccc(Nc2nc(N)n(C(=O)c3sccc3C)n2)cc1 [Cpd 82, 4-[[5-amino-1-[(3-methyl-2-thienyl)carbonyl]-1H-1,2,4-triazol-3-yl]amino]-N-methyl-benzenesulfonamide] |  | 0.022 | 0.118 | > 100 | 
CCc1ccc(C(=O)n2nc(Nc3ccc(S(=O)(=O)NC)cc3)nc2N)s1 [Cpd 84, 4-[[5-amino-1-[(5-ethyl-2-thienyl)carbonyl]-1H-1,2,4-triazol-3-yl]amino]-N-methyl-benzenesulfonamide] |  | 0.043 | 0.052 | > 10 | 
Nc1nc(Nc2ccc(N3CCNC3=O)cc2)nn1C(=O)c1c(F)cccc1F [Cpd 115, 1-[4-[[5-axnino-1-(2,6-difluorobenzoyl)-1H-1,2,4-triazol-3-yl]amino]phenyl]-2-imidazolidinone] | 0.313 | 0.467 | 1.44 | > 10 | 
Nc1nc(Nc2ccc(S(N)(=O)=O)cc2)nn1C(=O)C1CCCCC1 [Cpd 39, 4-[[5-amino-1-(cyclohexylcarbonyl)-1H-1,2,4-triazol-3-yl]amino]-benzenesulfonamide] | 0.012 | 0.334 |  | > 100 | 

From EP1712550A2, “Substituted triazole diamine derivatives as kinase inhibitors” (priority 2000, dated 2002)
